Laboratory results reported in patent US8664277B2, “Compounds and methods for PKCθ inhibition” (Complegen Partners, LLC, priority 2008, dated 2014).
Read-outs that look alike come from different tables or passages of the source. Each block holds one compound with its values, some of them ahead of it.

Columns and labels:
[1] = biological target: T1, Human PKC theta (Homo sapiens, UniProt Q04759); assay: XenoGene yeast growth inhibition, yeast containing human PKC theta gene; format: cell-based
T1 construct: expressed in transfected cells; host or cells: yeast (XenoGene strain)
T1 sequence (Q04759 whole entry): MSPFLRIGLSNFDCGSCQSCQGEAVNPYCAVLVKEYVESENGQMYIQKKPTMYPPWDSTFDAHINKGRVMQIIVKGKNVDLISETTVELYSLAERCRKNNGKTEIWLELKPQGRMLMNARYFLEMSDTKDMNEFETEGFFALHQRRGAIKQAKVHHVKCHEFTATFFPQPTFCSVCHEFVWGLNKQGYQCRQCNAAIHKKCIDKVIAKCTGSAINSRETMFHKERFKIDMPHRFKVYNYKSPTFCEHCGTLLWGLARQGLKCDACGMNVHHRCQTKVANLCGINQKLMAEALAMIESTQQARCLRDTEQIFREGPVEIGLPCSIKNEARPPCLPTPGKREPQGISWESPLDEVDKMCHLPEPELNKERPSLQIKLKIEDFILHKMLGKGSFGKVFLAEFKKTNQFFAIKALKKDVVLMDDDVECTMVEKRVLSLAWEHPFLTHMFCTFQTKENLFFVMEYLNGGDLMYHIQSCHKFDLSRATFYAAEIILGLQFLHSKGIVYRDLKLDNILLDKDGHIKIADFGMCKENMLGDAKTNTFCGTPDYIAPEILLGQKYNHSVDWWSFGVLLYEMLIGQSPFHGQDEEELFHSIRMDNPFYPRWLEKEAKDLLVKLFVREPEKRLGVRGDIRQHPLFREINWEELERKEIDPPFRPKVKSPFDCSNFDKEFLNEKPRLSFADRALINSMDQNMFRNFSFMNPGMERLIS
Excerpt: Using the XenoGene™ system described within, compounds inhibiting PKCθ are identified. The XenoGene™ system is a technology developed and patented by CompleGen wherein genes (“XenoGenes”™) from a target organism (e.g. humans) are used to functionally replace essential genes of a simple organism (yeast). These modified yeast are used to select compounds that act specifically on the protein encoded by the target gene and eliminate compounds that are not specific. […]

[2] = biological target: T2, PKC delta (Homo sapiens, UniProt Q05655); assay: XenoGene counter-screen, PKC delta; format: cell-based; settings: inverse of (PKC-theta IC50)/(PKC-X IC50)
T2 construct: expressed in transfected cells; host or cells: yeast (XenoGene strain)
T2 sequence (Q05655 whole entry): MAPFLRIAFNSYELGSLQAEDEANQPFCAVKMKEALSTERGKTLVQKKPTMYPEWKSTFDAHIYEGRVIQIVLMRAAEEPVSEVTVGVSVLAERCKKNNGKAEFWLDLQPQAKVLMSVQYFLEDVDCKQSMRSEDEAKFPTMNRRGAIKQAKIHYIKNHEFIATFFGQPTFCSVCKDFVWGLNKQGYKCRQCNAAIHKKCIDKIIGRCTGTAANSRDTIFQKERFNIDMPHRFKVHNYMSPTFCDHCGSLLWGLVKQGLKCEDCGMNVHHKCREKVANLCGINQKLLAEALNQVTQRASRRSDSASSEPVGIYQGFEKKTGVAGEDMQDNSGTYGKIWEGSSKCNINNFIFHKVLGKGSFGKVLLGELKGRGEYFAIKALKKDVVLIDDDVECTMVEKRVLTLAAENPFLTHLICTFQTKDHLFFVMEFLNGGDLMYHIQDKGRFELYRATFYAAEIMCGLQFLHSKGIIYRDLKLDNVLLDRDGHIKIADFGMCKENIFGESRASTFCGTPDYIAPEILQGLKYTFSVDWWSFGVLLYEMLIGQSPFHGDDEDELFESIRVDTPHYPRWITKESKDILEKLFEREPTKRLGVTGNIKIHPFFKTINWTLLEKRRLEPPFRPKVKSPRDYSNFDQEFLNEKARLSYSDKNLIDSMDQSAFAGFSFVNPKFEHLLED
Description: (§1) To identify compounds as being selective PKC theta inhibitors the IC50 values are determined against XenoGene™ strains containing other XenoGenes™, especially certain other PKC genes (see Example 10).
(§2) Human PKC theta gene (cDNA) was used to generate a XenoGene™ system as previously described (U.S. Pat. Nos. 6,998,261, 6,232,074), which was used to screen compounds in a chemical compound library. XenoGene™ systems used as counter-screens were constructed similarly using the gene for the appropriate counter-screen target. In particular, human genes (cDNA) encoding PKC delta, PKC eta and PKC epsilon were used to generate XenoGene™ systems.

[3] = biological target: T3, PKC epsilon (Homo sapiens, UniProt Q02156); assay: XenoGene counter-screen, PKC epsilon; format: cell-based; settings: inverse of (PKC-theta IC50)/(PKC-X IC50)
T3 construct: expressed in transfected cells; host or cells: yeast (XenoGene strain)
T3 sequence (Q02156 1-737): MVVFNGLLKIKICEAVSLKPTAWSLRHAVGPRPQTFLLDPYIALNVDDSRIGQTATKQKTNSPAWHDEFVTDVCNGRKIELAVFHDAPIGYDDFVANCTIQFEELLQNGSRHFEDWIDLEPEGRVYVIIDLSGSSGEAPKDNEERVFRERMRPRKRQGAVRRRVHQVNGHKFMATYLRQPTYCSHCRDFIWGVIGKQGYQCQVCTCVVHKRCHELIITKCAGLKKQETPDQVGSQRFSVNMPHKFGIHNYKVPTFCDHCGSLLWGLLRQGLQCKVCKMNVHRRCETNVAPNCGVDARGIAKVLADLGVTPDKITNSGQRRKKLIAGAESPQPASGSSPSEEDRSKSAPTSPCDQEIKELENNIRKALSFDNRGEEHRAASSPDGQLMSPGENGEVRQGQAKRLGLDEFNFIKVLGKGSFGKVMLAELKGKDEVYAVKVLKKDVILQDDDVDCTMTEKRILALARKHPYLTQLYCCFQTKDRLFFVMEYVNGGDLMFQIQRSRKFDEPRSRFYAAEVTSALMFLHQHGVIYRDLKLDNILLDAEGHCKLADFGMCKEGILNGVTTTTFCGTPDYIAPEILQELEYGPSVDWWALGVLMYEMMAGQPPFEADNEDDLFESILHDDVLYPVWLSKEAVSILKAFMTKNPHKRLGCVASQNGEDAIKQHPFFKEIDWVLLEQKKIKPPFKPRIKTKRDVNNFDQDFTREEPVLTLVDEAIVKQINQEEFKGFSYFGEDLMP
Description: as §1, §2

[4] = test system: T cell lymphomas; assay: Inhibition of T cell lymphomas, live cells counted by flow cytometry; format: cell-based, mouse; settings: for EC50: Mus musculus, T-cell, 96 h, 4 days growth
Excerpt: The compounds of the present invention can also be screened for the ability to inhibit T cell lymphomas. Assays for inhibiting T cell lymphomas are known to one of skill in the art. In some embodiments, the assay involves mice generated from the nucleus of a mature T cell with a “fixed” rearranged T cell receptor. These T cells spontaneously generate T cell lymphomas which resemble human T cell lymphomas. T cell lymphomas isolated from the mice can then be treated with compounds of the present invention. After sufficient time to allow for cell growth, live cells are counted by flow cytometry (Serwold et al. (2007) J. Immunol. 179; 928). One of skill in the art will appreciate that other assays are useful in the present invention.
(§3) Mice generated from the nucleus of a mature T cell (see Hochedlinger K, Jaenisch R. (2002) Nature 415; 1035) with a “fixed” rearranged T cell receptor spontaneously generate T cell lymphomas which resemble human T cell lymphomas. Several T cell lymphomas (1-4) isolated from these mice were treated with compound 471. All T cell lymphomas were inhibited by compound 471. A B-cell hybridoma served as a non-T cell control and was not affected by the compound. Cells were seeded into 96-well plates (5,000 cells/well) in the presence of compound 471 at concentrations ranging from 0.1 to 5 uM. After 4 days growth (37° C., 5% CO2), live cells were counted by flow cytometry (Serwold et al. (2007) J. Immunol. 179; 928)

[5] = test system: B-cell hybridoma; assay: B-cell hybridoma non-T cell control, live cells counted by flow cytometry; format: cell-based
Description: as §3

[6] = test system: Mouse splenic T cells; assay: Inhibition of naive T cell activation (anti-CD3/anti-CD28), 3H-TdR incorporation; format: cell-based; settings: three days, control without compound 31571
Description: Inhibition of naïve T cell activation by compound 471. Mouse splenic T cells were isolated from unimmunized mice by magnetic negative selection (Miltenyi®, Untouched T Cell Isolation Kit) or FACS using anti-CD3-PE-Cy7. Isolated T cells were incubated in microtiter wells coated with anti-CD3 monoclonal antibody and soluble anti-CD28 monoclonal antibody, 10^5 cells/100 μl in 10% FBS-RPMI as above, for three days. Proliferation was measured by ^3H-TdR incorporation.

[7] = biological target: T4, yeast PKC1 (Saccharomyces cerevisiae, UniProt P24583); assay: XenoGene counter-screen, yeast PKC1; format: cell-based; settings: inverse of (PKC-theta IC50)/(PKC-X IC50)
T4 construct: endogenous in cells; host or cells: yeast control strain
T4 sequence (P24583 1-1151): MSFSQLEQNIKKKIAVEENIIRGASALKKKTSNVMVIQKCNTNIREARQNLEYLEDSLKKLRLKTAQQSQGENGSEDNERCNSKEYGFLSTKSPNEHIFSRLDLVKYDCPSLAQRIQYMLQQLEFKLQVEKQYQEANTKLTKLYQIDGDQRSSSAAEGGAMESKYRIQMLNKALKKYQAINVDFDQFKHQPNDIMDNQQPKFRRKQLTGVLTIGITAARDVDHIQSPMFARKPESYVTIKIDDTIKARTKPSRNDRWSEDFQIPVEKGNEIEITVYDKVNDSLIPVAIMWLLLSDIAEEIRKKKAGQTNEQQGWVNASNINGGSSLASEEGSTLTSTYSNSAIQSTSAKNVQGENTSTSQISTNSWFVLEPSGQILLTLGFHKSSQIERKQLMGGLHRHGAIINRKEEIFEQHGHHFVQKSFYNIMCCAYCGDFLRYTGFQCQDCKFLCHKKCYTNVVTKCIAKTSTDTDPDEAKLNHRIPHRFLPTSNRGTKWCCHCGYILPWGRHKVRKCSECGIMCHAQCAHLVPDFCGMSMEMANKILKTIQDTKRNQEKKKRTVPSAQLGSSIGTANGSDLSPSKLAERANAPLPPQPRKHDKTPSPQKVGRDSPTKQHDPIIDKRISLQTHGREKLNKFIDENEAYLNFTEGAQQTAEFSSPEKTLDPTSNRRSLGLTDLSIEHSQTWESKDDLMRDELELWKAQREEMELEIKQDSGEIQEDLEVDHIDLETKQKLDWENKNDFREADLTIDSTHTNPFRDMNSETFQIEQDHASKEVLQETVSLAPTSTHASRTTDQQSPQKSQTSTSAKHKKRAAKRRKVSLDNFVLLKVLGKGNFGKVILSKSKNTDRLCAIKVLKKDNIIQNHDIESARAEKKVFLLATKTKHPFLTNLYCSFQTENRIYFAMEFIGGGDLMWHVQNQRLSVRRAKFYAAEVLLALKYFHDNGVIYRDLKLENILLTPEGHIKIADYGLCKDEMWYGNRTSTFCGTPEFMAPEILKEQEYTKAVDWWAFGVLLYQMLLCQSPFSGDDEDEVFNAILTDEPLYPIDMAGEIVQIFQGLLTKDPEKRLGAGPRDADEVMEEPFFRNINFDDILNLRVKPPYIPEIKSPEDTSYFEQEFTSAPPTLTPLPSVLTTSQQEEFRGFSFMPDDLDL
Excerpt: Using the XenoGene™ system described within, compounds inhibiting PKCθ are identified. The XenoGene™ system is a technology developed and patented by CompleGen wherein genes (“XenoGenes”™) from a target organism (e.g. humans) are used to functionally replace essential genes of a simple organism (yeast). These modified yeast are used to select compounds that act specifically on the protein encoded by the target gene and eliminate compounds that are not specific. XenoGene™ constructs provide a very high throughput screening system that allows identification of compounds active on the function of the target protein in a cell under physiological conditions on “first-pass” screening and further, to selectively counter-screen against 200 human targets or more if necessary. […] The relative potencies of the active compounds is determined by titration to find the concentration of compound providing 50% inhibition of growth (IC50) against the yeast containing the target gene (Table 1).
as §2

[8] = biological target: T5, PKC eta (Homo sapiens, UniProt P24723); assay: XenoGene counter-screen, PKC eta; format: cell-based; settings: inverse of (PKC-theta IC50)/(PKC-X IC50)
T5 construct: expressed in transfected cells; host or cells: yeast (XenoGene strain)
T5 sequence (P24723 whole entry): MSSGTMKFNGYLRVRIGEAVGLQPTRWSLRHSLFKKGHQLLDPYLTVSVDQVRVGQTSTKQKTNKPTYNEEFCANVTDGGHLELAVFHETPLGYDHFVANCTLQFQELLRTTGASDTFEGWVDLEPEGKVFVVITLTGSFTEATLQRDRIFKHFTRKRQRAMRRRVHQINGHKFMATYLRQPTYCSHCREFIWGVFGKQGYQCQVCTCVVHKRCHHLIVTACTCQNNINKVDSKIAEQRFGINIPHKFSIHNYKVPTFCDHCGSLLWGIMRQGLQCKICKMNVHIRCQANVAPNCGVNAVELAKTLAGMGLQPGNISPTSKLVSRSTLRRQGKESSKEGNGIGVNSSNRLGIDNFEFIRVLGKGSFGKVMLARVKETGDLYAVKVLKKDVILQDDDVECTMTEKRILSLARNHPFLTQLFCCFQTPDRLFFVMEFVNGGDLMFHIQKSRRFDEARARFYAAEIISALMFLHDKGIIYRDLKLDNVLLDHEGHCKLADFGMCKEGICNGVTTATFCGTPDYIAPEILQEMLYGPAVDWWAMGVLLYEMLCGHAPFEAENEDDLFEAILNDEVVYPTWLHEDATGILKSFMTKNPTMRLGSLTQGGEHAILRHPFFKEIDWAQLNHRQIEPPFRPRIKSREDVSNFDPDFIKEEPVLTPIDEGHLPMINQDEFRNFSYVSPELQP
Description: as §1, §2

[9] = 50% inhibition of growth of yeast containing the target gene, read-out: IC50
[10] = XenoGene system, read-out: PKC-theta IC50

IC50 [1, 9]: > 10 µM
SMILES: CC(C)(C)c1ccc(S(=O)(=O)c2ccc(N)cc2)cc1 [Compound 750]

IC50 [1, 9]: 1 to 10 µM
SMILES: Cc1ccc(Oc2ccc(N)cc2)cc1 [Compound 508]

IC50 [1, 9]: < 1 µM
SMILES: CC(C)c1ccc(Oc2ccc(N)cc2)cc1 [Compound 742]

SMILES: CC(C)(C)c1ccc(Oc2ccc(N)cc2)cc1 [Compound 471]
Selectivity for PKC-theta v. PKC-delta [2]: 2.5
IC50 [1, 9]: < 1 µM
IC50 [1, 10]: 0.14 µM
Selectivity for PKC-theta v. PKC-epsilon [3]: 1.1
EC50 ([4]; Lymphoma 1): 0.7 µM
EC50 ([4]; Lymphoma 2): 0.2 µM
EC50 ([4]; Lymphoma 4): < 0.1 µM
EC50 ([4]; Lymphoma 5): 0.7 µM
Inhibition of T cell lymphomas ([4]; all T cell lymphomas, 0.1 to 5 uM): inhibited
EC50 ([5]; 96 h, B-cell Hybridoma, 4 days growth): > 5 µM
Effect on B-cell hybridoma ([5]; non-T cell control, 0.1 to 5 uM): not affected
3H-TdR cpm ([6]; 0.5 uM compound): 21928 cpm
3H-TdR cpm ([6]; 1.0 uM compound): 880 cpm
Selectivity for PKC-theta v. yeast PKC1 [7]: 28
Selectivity for PKC-theta v. PKC-eta [8]: 0.36

IC50 [1, 9]: < 1 µM
SMILES: CCCc1ccc(Oc2ccc(N)cc2)cc1 [Compound 745]

IC50 [1, 9]: > 10 µM
SMILES: Nc1ccc([S+]([O-])c2ccc(C(F)(F)F)cc2)cc1 (stereo not drawn) [Compound 751]

IC50 [1, 9]: > 10 µM
SMILES: CC(C)(C)c1ccc(Oc2ccc(N)nc2)cc1 [Compound 486]

IC50 [1, 9]: 1 to 10 µM
SMILES: Cc1cc(Oc2ccc(N)cc2)ccc1Cl [Compound 507]

SMILES: CC(C)(C)c1ccc(Sc2ccc(N)cc2)cc1 [Compound 740]
Selectivity for PKC-theta v. PKC-delta [2]: 26
IC50 [1, 9]: < 1 µM
IC50 [1, 10]: 0.05 µM
Selectivity for PKC-theta v. PKC-epsilon [3]: 12
Selectivity for PKC-theta v. yeast PKC1 [7]: 80
Selectivity for PKC-theta v. PKC-eta [8]: 3.0

IC50 [1, 9]: < 1 µM
SMILES: Nc1ccc(Oc2ccc(OC(F)(F)F)cc2)cc1 [Compound 510]

SMILES: Nc1ccc(Sc2ccc(C(F)(F)F)cc2)cc1 [Compound 741]
Selectivity for PKC-theta v. PKC-delta [2]: 8.0
IC50 [1, 9]: < 1 µM
IC50 [1, 10]: 0.25 µM
Selectivity for PKC-theta v. PKC-epsilon [3]: 16
Selectivity for PKC-theta v. yeast PKC1 [7]: 32
Selectivity for PKC-theta v. PKC-eta [8]: 4.0

IC50 [1, 9]: < 1 µM
SMILES: Nc1ccc(Oc2ccc(C3CCCC3)cc2)cc1 [Compound 761]
